Values joined by “and” are separate entries in the source; they are usually repeats but may differ in a detail not shown here. Equal entries are not always repeated. Where two headings read alike, the source gives them in different places. Marks after values point to notes of the source that are not given here. Blank lines part the entries; values can stand above or below the molecule they belong to.
Tests used:
[1] = Deuteron T1 determined by Inversion Recovery technique (5.8T, saline); assay type: physicochemical; details: for T1 relaxation time of deuterons at D site / HDO T1: 5.8T, saline
Procedure: Example 1: Determinations of Deuterons T1 in Sugar Molecules
Table 1 describes the difference in T1 of deuterons in water (HDO, natural abundance) and in sites labelled with deuterons in various molecules that were determined using an Inversion Recovery technique. […] PGP-47 TI

[2] = Adverse effects after bolus intravenous injection of DDG, rats; assay type: in vivo, rat; details: bolus i.v., 37 mg/kg to 248 mg/kg (mice and rats), awake up to 78 min
Procedure: (§1) Mice and rats, males and females at equal numbers, were intravenously injected with a bolus of varying doses of deuterated 2-deoxy-D-glucose (2-DG, DDG, with varying numbers and positions of deuteration). DDGs were provided by CortecNet, France. The injection was performed under sedation in all rats (18) and in 12 of 18 mice, after which the animals woke up within 1 minute. […] Further to euthanasia, the brain, liver, kidneys, heart, and muscle were excised and immediately placed in liquid nitrogen. The frozen tissue samples were kept at −80 °C until further processing.
(§2) The animals were observed awake for up to 78 min after the injection. The injection bolus was administered in less than 1 s and ranged from 0.1 mL for mice (ca. 25-40 g) to 0.6 mL for rats (ca. 120-160 g).

[3] = Adverse effects after bolus intravenous injection of DDG, mice; assay type: in vivo, mouse; details: bolus i.v., 37 mg/kg to 248 mg/kg (mice and rats), awake up to 78 min
Procedure: as §1, §2

[4] = Biodistribution of deuterated 2-deoxy-D-glucose, 2H-NMR of tissue extracts, mice; assay type: in vivo, mouse; details: [D2]DDG bolus i.v., 169-182 mg/kg (non-labeled 2DG equivalent)
Procedure: as §1
Extraction of the water-soluble metabolites and the lipids was carried out using the dual-phase extraction procedure as described previously [Katz-Brull R, et al. Differential routing of choline in implanted breast cancer and normal organs. Article. Magnetic Resonance in Medicine. July 2001; 46(1):31-38. doi:10.1002/mrm.1157]. Briefly, a frozen sample is placed in 10 mL of ice-cold methanol containing 0.4 mM phenyl phosphonic acid for at least 1 hour. The tissue is then homogenized in ice-cold methanol using a tissue homogenizer. Equal volumes of chloroform and water are then added to the sample tube, and the mixture is vortexed and vigorously shaken. The samples are allowed to stand at 4 °C for at least 24 hours for phase separation. The methanol-water phase is aspirated, treated with Chelex to remove divalent ions, and then lyophilized for at least 24 hours. When the samples are dry (as powder), they are redissolved in 0.5 mL of double-distilled water and transferred to 5-mm NMR tubes for scanning. The samples are scanned in a 9.4 T NMR spectrometer.

brain slices = test: [6,6-D2]D-glucose uptake and metabolism in perfused brain slices, deuterium NMR; assay type: in vitro ADME, rat (male Sprague-Dawley); details: for D-Glc before 1st ischemia: group A; for Minimum D-Glc during 1st ischemia: group B, 10 min perfusion arrest; for Maximal difference of D-Glc before and during 1st ischemia: group B′; for D-Glc in between ischemic conditions: group C; for Minimum D-Glc during 2nd ischemia: group D; for Maximal difference of D-Glc before and during 2nd ischemia: group D′; for D-Glc after 2nd ischemic condition: group E; for D-Lac before 1st ischemia: group F; for Maximal D-Lac during 1st ischemia: group G; for D-Lac in between ischemic conditions: group H; for Maximal D-Lac during 2nd ischemia: group I; for D-Lac after 2nd ischemic condition: group J
From the text: Male Sprague-Dawley rats (n=4, 70-100 g) were obtained from the Hebrew University Authority of Biological and Biomedical Models. The joint ethics committee (IACUC) of the Hebrew University and Hadassah Medical Center approved the study protocol for animal welfare. The Hebrew University is an AAALAC International accredited institute. Care was taken to minimize the animals' pain and discomfort. Animals were housed in the animal facilities 3-5 days after delivery for acclimatization and fed ad libitum. On the experimental day, animals were transferred to the laboratory and anesthetized within one hour of arrival.
To improve the health of acute brain slices obtained from mature adult rats, we modified a slice preparation technique optimized for in vitro electrophysiology in mature adult rat brain slices. In brief, slice health is improved by a so-called “protective recovery” method. NMDG is an extracellular replacer of sodium ions that prevents sodium ions and water influx into cells, the primary insult causing cell death following brain slicing. […] Furthermore, incubation in HEPES-buffered artificial cerebrospinal fluid (aCSF) improved slice health. The following solutions were prepared in the current study, and their use is described in the sections below.
NMDG-aCSF was used for transcardial perfusion, tissue slicing, and slice recovery. This medium contained 93 mM NMDG, 2.5 mM KCl, 1.2 mM NaH2PO4, 26 mM NaHCO3, 20 mM HEPES, 25 mM D-glucose, 10 mM MgSO4, 0.5 mM CaCl2, 5 mM ascorbic acid, 2 mM thiourea, and 3 mM pyruvic acid in double distilled water.
HEPES-holding aCSF was used to incubate slices following the surgical procedure. This medium contained 84 mM NaCl, 2.5 mM KCl, 1.2 mM NaH2PO4, 30 mM NaHCO3, 20 mM HEPES, 25 mM Glc (D-glucose, non-labeled), 2 mM MgSO4, 2 mM CaCl2, 5 mM ascorbic acid, 2 mM thiourea, and 3 mM pyruvic acid in double distilled water.
Perfusion aCSF was used for perfusion in the NMR spectrometer. This medium contained 115 mM NaCl, 2.5 mM KCl, 1.2 mM NaH2PO4, 24 mM NaHCO3, 5 mM HEPES, 10 mM Glc (to be replaced with 10 mM D-Glc), 2 mM MgSO4, and 2 mM CaCl2 in double distilled water.
All three solutions (1-3) were bubbled with 95%/5% O2/CO2 for at least one hour before use and titrated to a pH of 7.35-7.45 using HCl or NaOH. All concentrations were optimized for a calculated osmolarity of 310±15 mOsm.
Brain slices were extracted and maintained using the above solutions as previously described. Briefly, the rats were anesthetized using a gas anesthesia system (Somnosuite, Kent Scientific, Torrington, CT, USA). Induction was performed in a chamber with 3.5% isoflurane in room air with a flow rate of 440 mL/min. Following 4-7 min of induction, anesthesia was maintained with 3.1-3.2% isoflurane at the same flow rate. Upon obtaining a negative pedal pain reflex, surgery was initiated. First, the diaphragm was exposed and cut, and the rat was transcardially perfused with 30 mL of ice-cold NMDG-aCSF (Solution 1). The animals were then sacrificed by decapitation, and the brain was rapidly removed and placed in ice-cold NMDG-aCSF (Solution 1). The cerebrum was then cut into four parts (first, a sagittal cut along the hemispheric cleft and then a sagittal cut in the middle of each hemisphere). From each part, 350 μm slices were prepared using a McIlwain tissue chopper (The Mickle Laboratory Engineering Company Ltd., Surrey, UK). The process of brain extraction, from decapitation till the brain was in ice-cold NMDG-aCSF, took under 2 min, and the slicing procedure was done in less than 10 min. After cutting, the slices were transferred to warm, 32-34 °C, NMDG-aCSF (Solution 1) for 12 min for protective recovery. Then, the slices were transferred to HEPES-holding aCSF (Solution 2) at ~32 °C for 15-40 min incubation before transfer to the NMR spectrometer, where the slices were perfused with the aCSF of Solution 3. […]

[5] = position 1 (aliphatic), 16-17 °C
[6] = position 2 (aliphatic), 16-17 °C

SMILES: C[N+](C)(C)CCO [[2-^13C,1,1,2,2-D4]choline chloride]
T1 relaxation time of deuterons at D site [1, 5]: 422 ms | T1 relaxation time of deuterons at D site [1, 6]: 404 ms

SMILES: OC[C@H]1OC(O)[C@H](O)[C@@H](O)[C@@H]1O (some centres unmarked) [[^13C6, D7]glucose]
T1 relaxation time of deuterons at D site ([1]; aliphatic + ring, 20 °C): 56 ms

SMILES: [2H]C1(O)O[C@]([2H])(C([2H])([2H])O)[C@@]([2H])(O)[C@]([2H])(O)C1([2H])[2H] (stereo partly drawn) [[D8]DDG, [1,2,2,3,4,5,6,6-D8]2-deoxy-D-glucose]
adverse effects [2]: no adverse effects | adverse effects [3]: no adverse effects

SMILES: [2H]C([2H])(O)[C@H]1OC(O)C[C@@H](O)[C@@H]1O (stereo partly drawn) [[D2]DDG, [6,6-D2]2-deoxy-D-glucose]
concentration ([4]; n=1, read-out: concentration in the liver): 400 µM | concentration ([4]; n=2, read-out: concentration in the brain): 1190 µM | adverse effects [2]: no adverse effects | adverse effects [3]: no adverse effects

SMILES: OC[C@H]1OC(O)[C@H](O)[C@@H](O)[C@@H]1O (stereo partly drawn) [D-Glc, [6,6-D2]D-glucose]
time for return to baseline level upon reperfusion (brain slices; after 1st ischemic condition): ≤ 8 min | time for return to baseline level upon reperfusion (brain slices; after 2nd ischemic condition): ≤ 8 min | time for D-Glc signal to reach plateau (brain slices; after administration of D-Glc to perfusion medium): ≤ 6 min | maximal decrease in the D-Glc concentration (brain slices; both ischemic conditions, n=6): 4.3 ± 0.9 mM | conversion of available D-Glc (brain slices; during the ischemic conditions): fully converted to D-Lac | D-Glc before 1st ischemia (brain slices; average ± SD, n=3): 8.6 ± 0.7 mM | D-Glc before 1st ischemia (brain slices; individual animals): 9.3 mM and 8.8 mM and 7.6 mM | Minimum D-Glc during 1st ischemia (brain slices; average ± SD, n=3): 4.6 ± 1.5 mM | Minimum D-Glc during 1st ischemia (brain slices; individual animals): 4.7 mM and 6.4 mM and 2.8 mM | Maximal difference of D-Glc before and during 1st ischemia (brain slices; average ± SD, n=3): 3.9 ± 1.3 mM | Maximal difference of D-Glc before and during 1st ischemia (brain slices; individual animals): 4.6 mM and 2.4 mM and 4.8 mM | D-Glc in between ischemic conditions (brain slices; average ± SD, n=3): 8.7 ± 0.7 mM | D-Glc in between ischemic conditions (brain slices; individual animals): 9.5 mM and 8.6 mM and 7.9 mM | Minimum D-Glc during 2nd ischemia (brain slices; average ± SD, n=3): 4.1 ± 0.5 mM | Minimum D-Glc during 2nd ischemia (brain slices; individual animals): 4.6 mM and 4.2 mM and 3.4 mM | Maximal difference of D-Glc before and during 2nd ischemia (brain slices; average ± SD, n=3): 4.6 ± 0.3 mM | Maximal difference of D-Glc before and during 2nd ischemia (brain slices; individual animals): 4.9 mM and 4.4 mM and 4.5 mM | D-Glc after 2nd ischemic condition (brain slices; average ± SD, n=3): 9.3 ± 1.1 mM | D-Glc after 2nd ischemic condition (brain slices; individual animals): 10.8 mM and 8.8 mM and 8.2 mM | D-Glc in between 2nd and 3rd ischemic conditions (brain slices; group K, animal 3): 8.3 mM | Minimum D-Glc during 3rd ischemia (brain slices; group L, animal 3, 64 min ischemia): 1.2 mM | Maximal difference of D-Glc before and during 3rd ischemia (brain slices; group L′, animal 3): 7.1 mM | D-Glc after 3rd ischemic condition (brain slices; group M, animal 3): 9.1 mM | T1 relaxation time of deuterons at D site ([1]; aliphatic, 16-17 °C): 53 ^c ms

SMILES: C[N+](C)(C)CCO [[D13]choline bromide]
T1 relaxation time of deuterons at D site [1, 5]: 389 ms | T1 relaxation time of deuterons at D site [1, 6]: 396 ms | T1 relaxation time of deuterons at D site ([1]; position 3 (aliphatic), 16-17 °C): 382 ms

SMILES: [2H]O [HDO]
HDO T1 ([1]; HDO in the solution of [13C6, D7]glucose, 20 °C): 279 ms | HDO T1 ([1]; HDO in the solution of the compound on that line, 16-17 °C): 420 ms and 437 ms and 422 ms and 410 ms | HDO's T1 ([1]; summary of Table 1): ca. 400 ms

Second part, led by results:

T1 relaxation time of deuterons at D site ([1]; aliphatic, 16-17 °C): 48 ms | T1 relaxation time of deuterons at D site ([1]; aromatic, 16-17 °C): 43 ms
SMILES: N[C@@H](Cc1ccc(O)cc1)C(=O)O [[D7]tyrosine]

time for return to baseline level upon reperfusion (brain slices; after 1st ischemic condition): ≤ 8 min | time of first observation of D-Lac signal (brain slices; after D-Glc administration): ≤ 8 min | time for D-Lac to reach plateau (brain slices; after D-Glc administration, n=3): 12 to 14 min | increase in D-Lac concentration (brain slices; both ischemic conditions, n=6): 5.5 ± 1.1 mM | D-Lac level without perfusion arrest (brain slices; control experiment, no ischemic conditions): constant throughout | D-Lac before 1st ischemia (brain slices; average ± SD, n=3): 0.9 ± 0.4 mM | D-Lac before 1st ischemia (brain slices; individual animals): 0.4 mM and 1.02 mM and 1.4 mM | Maximal D-Lac during 1st ischemia (brain slices; average ± SD, n=3): 5.1 ± 1.3 mM | Maximal D-Lac during 1st ischemia (brain slices; individual animals): 4.8 mM and 3.7 mM and 6.8 mM | D-Lac in between ischemic conditions (brain slices; average ± SD, n=3): 1.1 ± 0.3 mM | D-Lac in between ischemic conditions (brain slices; individual animals): 0.67 mM and 1.29 mM and 1.41 mM | Maximal D-Lac during 2nd ischemia (brain slices; average ± SD, n=3): 5.91 ± 0.12 mM | Maximal D-Lac during 2nd ischemia (brain slices; individual animals): 5.85 mM and 6.07 mM and 5.80 mM | D-Lac after 2nd ischemic condition (brain slices; average ± SD, n=3): 1.6 ± 0.4 mM | D-Lac after 2nd ischemic condition (brain slices; individual animals): 1.08 mM and 1.50 mM and 2.16 mM | Maximal D-Lac during 3rd ischemia (brain slices; group N, animal 3, 64 min ischemia): 10.2 mM | D-Lac after 3rd ischemia (brain slices; group O, animal 3): 2.7 mM | D-Lac signal in medium without brain slices relative to D-Lac in NMR tube with slices (brain slices; perfusion medium, five h, no perfusion arrest): 2.2%
SMILES: [2H]C([2H])C(O)C(=O)O [D-Lac, [3,3-D2]lactate]
D-Lac accumulation within the cells due to ischemic conditions (brain slices; after 2nd reperfusion vs before and between ischemic conditions): did not accumulate within the cells due to the ischemic conditions

T1 relaxation time of deuterons at D site ([1]; aliphatic, 16-17 °C): 45 ms | T1 relaxation time of deuterons at D site ([1]; aromatic, 16-17 °C): 45 ms
SMILES: N[C@@H](Cc1ccc(O)cc1)C(=O)O [[^13C9, D7, ^15N]tyrosine]
